Experimental data taken from patent publication US20190314379A1, “METHODS OF USING CANNABINOID CB2 RECEPTOR AGONIST COMPOSITIONS TO SUPPRESS AND PREVENT OPIOID TOLERANCE AND WITHDRAWAL IN A SUBJECT” (Indiana University Research and Technology Corporation, priority 2018, published 2019).

Legend:
[1] = system: Walker 256 tumor-bearing rats; details: cited from earlier work
keratinocytes = details: cited from earlier work
[2] = system: μ-opioid receptor expression; details: spinal cord and dorsal root ganglia (DRG); cited from earlier work
human CB2 = human CB2 (Homo sapiens, UniProt P34972); experiment: Forskolin-stimulated cAMP accumulation (cyclase), HEK hCB2; type: cell-based; set-up: expressed in transfected cells
[3] = system: paclitaxel-induced neuropathic pain; details: 8 days once daily (i.p.) dosing or chronic infusion over 4 weeks; cited from earlier work
mouse CB2 receptors = target: T1, mouse CB2 receptors (Mus musculus, UniProt P47936); experiment: Forskolin-stimulated cAMP accumulation (cyclase), HEK mCB2; type: cell-based
T1 construct: expressed in transfected cells

[4] = system: paclitaxel-induced cold allodynia; experiment: Paclitaxel-induced cold allodynia (acetone); type: in vivo, mouse
Experimental: (§1) In all studies, the experimenter was blinded to the treatment condition, and mice were randomly assigned to experimental conditions. Paclitaxel (4 mg/kg i.p.) was administered four times on alternate days (cumulative dose, 16 mg/kg i.p.) to induce neuropathic pain as described previously by our group (Deng et al., 2015). Control mice received an equal volume of cremophor-vehicle. Development of paclitaxel-induced allodynia was assessed on day 0, 4, 7, 11, and 14.
(§2) Effects of pharmacologic manipulations were assessed at 30 minutes after drug administration during the maintenance phase of paclitaxel-induced neuropathy (i.e., beginning day 18-20 after initial paclitaxel injection).
(§3) In experiments 2 and 3, pharmacologic manipulations were performed once daily for 12 consecutive days in each of the two phases of chronic treatment. Four days separated phase 1 and phase 2 chronic dosing in all studies comprising two phases of chronic dosing. Experiments 2 and 3 were performed concurrently using overlapping cohorts that were tested with a single vehicle (phase 1), vehicle (phase 2) group.
(§4) We then assessed the antiallodynic efficacy of chronic systemic administration of vehicle or morphine (10 mg/kg per day i.p.×12 days) administered during phase 2 in the same animals. Responsiveness to mechanical and cold stimulation was evaluated on treatment days 1, 4, 8, and 12 during phase 1 and on treatment days 16, 19, 23, and 27 during phase 2 (i.e., phase 2 started on day 16).
(§5) In experiment 4, we evaluated the impact of coadministration of morphine (10 mg/kg i.p.×12 days) with a submaximal dose of LY 2828360 (0.1 mg/kg per day i.p.×12 days) in WT and CB2 KO mice.
Response time (seconds) spent attending to (i.e., elevating, licking, biting, or shaking) the paw stimulated with acetone (Sigma-Aldrich) was measured in triplicate for each paw to assess cold allodynia as previously published. An acetone bubble (approximately 5 to 6 p.1) formed at the end of a blunt 1-ml syringe hub was gently applied to the plantar surface of the hind paw. Care was taken not to apply mechanical stimulation to the hind paw with the syringe itself. The total time the animal spent attending to the acetone-stimulated paw (i.e., elevation, shaking, or licking) was recorded over 1 minute after acetone application. Acetone was applied three times to each paw with a 3-minute interval between applications. Values for each animal were calculated as the mean of six determinations of acetone responsiveness derived from each mouse.

[5] = system: naloxone-precipitated opioid withdrawal; experiment: Naloxone-precipitated opioid withdrawal in paclitaxel-treated mice; type: in vivo, mouse; details: paclitaxel-treated WT mice
Experimental: Alter the last injection of morphine (on day 28 for two-phase treatments, on day 13 for coadministration treatment), we challenged WT or CB2KO mice from experiments 2, 3, and 4 with vehicle, followed 30 minutes later by naloxone (5 mg/kg i.p.) to precipitate opioid receptor-mediated withdrawal. Mice were video-recorded for subsequent scoring of withdrawal-like behaviors for a 30-minute interval after challenge with vehicle or naloxone.
Mice were video-taped, and the number of jumps was scored in 5-minute intervals for a total observation period of 30 minutes after challenge with either saline or naloxone (5 mg/kg i.p.).

[6] = system: paclitaxel-induced mechanical allodynia; experiment: Paclitaxel-induced mechanical allodynia (electronic von Frey); type: in vivo, mouse
Experimental: as §1, §2, §3, §4, §5
Paw withdrawal thresholds (grams) to mechanical stimulation were measured in duplicate for each paw using an electronic von Frey anesthesiometer supplied with a 90-g probe (model Alemo 2390-5; IITC, Woodland Hills, Calif.) as described previously. Mice were placed on an elevated metal mesh table and allowed to habituate under individual, inverted plastic cages to the testing platform for at least 20 minutes until exploratory behavior had ceased. Alter the habituation period, a force was applied to the midplantar region of the hind paw with a semiflexible tip connected to the anesthesiometer. Mechanical stimulation was terminated when the animal withdrew its paw, and the value of the applied force was recorded in grams. Mechanical paw withdrawal thresholds were obtained in duplicate for each paw and are reported as the mean of duplicate determinations from each animal, averaged across animals, for each group.

[7] = system: morphine analgesia and antinociceptive tolerance; details: rats, with morphine; cited from earlier work
[8] = system: preclinical inflammatory, postoperative, and neuropathic pain; details: dose- and time-dependent; cited from earlier work
[9] = system: formalin model of inflammatory pain; details: coadministration; cited from earlier work
[10] = WT mice, 5 mg/kg per day i.p.×12 days
[11] = WT mice, AM1710 5 mg/kg per day×12 days phase I, morphine 10 mg/kg per day×12 days phase II
[12] = paclitaxel-treated WT mice, 5 mg/kg per day i.p.×12 days, vs vehicle

T1 sequence (P47936 whole entry): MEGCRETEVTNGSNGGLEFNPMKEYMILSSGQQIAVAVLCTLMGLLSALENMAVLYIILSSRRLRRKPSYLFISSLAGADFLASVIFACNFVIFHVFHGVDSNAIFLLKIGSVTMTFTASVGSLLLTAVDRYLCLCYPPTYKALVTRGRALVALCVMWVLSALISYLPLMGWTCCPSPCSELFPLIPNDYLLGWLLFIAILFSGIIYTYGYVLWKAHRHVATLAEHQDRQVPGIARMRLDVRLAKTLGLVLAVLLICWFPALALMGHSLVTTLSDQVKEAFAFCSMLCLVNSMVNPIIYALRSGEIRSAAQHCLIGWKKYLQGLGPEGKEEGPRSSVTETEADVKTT
Sequence of human CB2 (P34972 whole entry, the tested form may be a part): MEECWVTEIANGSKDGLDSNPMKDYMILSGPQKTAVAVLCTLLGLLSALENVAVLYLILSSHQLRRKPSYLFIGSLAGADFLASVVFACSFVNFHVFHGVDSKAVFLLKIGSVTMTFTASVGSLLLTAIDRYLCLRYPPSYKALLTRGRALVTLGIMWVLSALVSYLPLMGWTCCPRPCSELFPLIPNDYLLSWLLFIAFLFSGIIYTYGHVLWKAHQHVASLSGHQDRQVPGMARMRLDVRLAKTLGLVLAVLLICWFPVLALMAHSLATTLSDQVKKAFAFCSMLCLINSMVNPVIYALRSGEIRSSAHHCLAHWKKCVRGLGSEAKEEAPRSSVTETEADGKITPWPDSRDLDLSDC

Compound: CN1CCCCC1Cn1cc(C(=O)c2cc([N+](=O)[O-])ccc2I)c2ccccc21 (centres unmarked) [AM1241]
- morphine tolerance ([1]; low dose coadministered with morphine): reduced the morphine tolerance
- opioid-mediated antinociception, hotplate and mechanical sensitivity ([1]; tumor-bearing rats): modest enhancement of opioid-mediated antinociception
- release of β-endorphin (keratinocytes): stimulated the release of the endogenous opioid β-endorphin
- μ-opioid receptor expression [2]: upregulated μ-opioid receptor expression

Compound: CCCCCCC(C)(C)c1cc(O)c2c(c1)oc(=O)c1ccc(OC)cc12 [AM1710, 3-(1,1-dimethyl-heptyl)-1-hydroxy-9-methoxy-benzo(c) chromen-6-one]
- cAMP levels, compound alone (no forskolin) (human CB2; HEK hCB2): alone did not change the cAMP levels
- duration of decrease in cAMP (human CB2; HEK hCB2): up to 30 minutes
- inhibition of forskolin-induced cAMP levels, time course (human CB2; HEK hCB2, 1 μM final concentration): induced a delayed and persistent inhibition of forskolin-stimulated cAMP levels, starting at 10 minutes
- inhibition of forskolin-stimulated cAMP after PTX pretreatment (human CB2; HEK hCB2, 1 μM final concentration, PTX): blocked the inhibition of forskolin-stimulated cAMP
- cAMP levels vs forskolin alone in PTX-treated cells (human CB2; HEK hCB2, with forskolin, 5 minutes, PTX): increased cAMP levels compared with forskolin alone
- paclitaxel-induced neuropathic pain, tolerance and physical dependence [3]: suppresses paclitaxel-induced neuropathic pain without producing tolerance or physical dependence
- time by which inhibition of forskolin-stimulated cAMP dissipated (mouse CB2 receptors; HEK mCB2, 1 μM): ≤ 15 min
- forskolin-induced cAMP levels (mouse CB2 receptors; HEK mCB2, 1 μM final concentration, 5 minutes): attenuated forskolin-induced cAMP levels
- cAMP levels in the absence of forskolin (mouse CB2 receptors; HEK mCB2, compound alone): alone did not change cAMP levels
- cAMP levels in the absence of forskolin at 10 minutes (mouse CB2 receptors; HEK mCB2, compound alone, 10 minutes): decreased cAMP levels below the basal/no forskolin level
- forskolin-stimulated cAMP after PTX treatment (mouse CB2 receptors; mCB2, 1 μM, PTX 300 ng/ml overnight): abolished the decrease in forskolin-stimulated cAMP
- tolerance to antiallodynic effects over repeated administration, cold [4, 10]: tolerance did not develop
- development of tolerance to phase II morphine, cold [4, 11]: delayed the development of tolerance to morphine
- cold response time, chronic phase I treatment [4, 12]: reduced the heightened cold response time
- naloxone-precipitated jumps, AM1710 (I)-morphine (II) vs vehicle (I)-vehicle (II) [5]: did not differ
- number of naloxone-precipitated jumps, AM1710 (I)-morphine (II) vs vehicle (I)-morphine (II) ([5]; AM1710 5 mg/kg i.p.×12 days, morphine 10 mg/kg i.p.×12 days): lower
- tolerance to antiallodynic effects over repeated administration, mechanical [6, 10]: tolerance did not develop
- development of tolerance to phase II morphine, mechanical [6, 11]: delayed the development of tolerance to morphine
- mechanical paw withdrawal thresholds, chronic phase I treatment [6, 12]: increased mechanical paw withdrawal thresholds

Compound: CCCn1c(C)c(C(=O)c2cccc3ccccc23)c2ccccc21 [JWH015]
- morphine analgesia and morphine antinociceptive tolerance [7]: increased morphine analgesia and morphine antinociceptive tolerance
- pain inhibition on coadministration with morphine [8]: synergistically inhibited preclinical inflammatory, postoperative, and neuropathic pain

Compound: CCCC(C)(C)c1ccc2c(c1)OC(C)(C)[C@@H]1CC=C(C)C[C@@H]21 [JWH133]
- opioid-sparing effects [9]: exhibited opioid-sparing effects
